# From US20050003371A1, “Modified nucleotides and methods of labeling nucleic acids” (Stratagene, priority 2002, published 2005)
# Entries after “also recorded” stand apart in the source; their conditions may differ.
# Experiments:
# Klenow polymerase = target: T1, Klenow polymerase (Escherichia coli, UniProt P00582); assay: Polymerase primer extension assay (Procedure 2); type: biochemical, E. coli; conditions: Procedure 2, results not shown
# T1 construct: Incorporation results using SAc-dUTP and the Klenow fragment of DNA polymerase I following Procedure 3
# Experimental: (§1) Aliquots containing 10 ng of the kinased 12-mer described in procedure 1 were combined with 40 ng of an 18-mer oligonucleotide (5′-[…]-3′; SEQ ID NO: 2) in 8 μL of T-7 buffer (20 mM MgCl2, 50 mM NaCl, 40 mM Tris, pH 7.5) or Klenow buffer (5 mM MgCl2, 4 mM DTT, 35 mM Tris, pH 7.5). To each reaction was added 1 μL of a solution containing 100 μM each of dATP and fluorescein 12-dUTP. The reaction contents were heated to 95° C. for 2 minutes and allowed to cool to room temperature. Five units (1 μL) of the appropriate polymerase were added and the reaction mixtures were incubated at 37° C. for 10 minutes. Control reactions were run which contained no polymerase. Polymerase activity was terminated by addition of 3 μL of 1M EDTA and the extension products were separated by electrophoresis using a 20% acrylamide gel and the results visualized by autoradiography. A measurement of the degree of polymerase-catalyzed primer extension obtained in the presence of modified nucleotide analogs according to the invention can be determined by substituting the modified nucleotide (1 μL of 100 μM) for fluorescein 12-dUTP in procedure 2.
# Taq DNA polymerase = target: T2, Taq DNA polymerase (Thermus aquaticus, UniProt P19821); assay: Polymerase primer extension assay, 12-mer primer/18-mer template (Procedure 2); type: biochemical; conditions: template with maximum four dTTP/dUTP sites
# T2 construct: purchased Stratagene (La Jolla, Calif.)
# Experimental: as §1
# [1] = target: T3, terminal deoxynucleotide transferase (TdT) (Bos taurus, UniProt P06526); assay: Tailing / 3'-end labeling of a 12-mer oligonucleotide with terminal transferase (Procedure 1); type: biochemical; conditions: for number of contiguous modified bases added to the 3' terminus: TdT-catalyzed end labeling
# T3 construct: purchased Stratagene (La Jolla, Calif.)
# Experimental: A 12-mer oligonucleotide (5′-[…]-3′; SEQ ID NO: 1) was 5′ labeled with ^32P ATP and T4 Polynucleotide Kinase according to established methods (Roychoudhury and Wu, 1980; Sambrook, Fritch, and Maniatis, 1989). Aliquots of the mixture containing 10 ng of kinased oligo were combined with 100 pmol of fluorescein 12-dUTP and 5 units of terminal deoxynucleotide transferase (TdT) in 100 mM potassium cacodylate, 2 mM CoCl2, pH 7.2 (final volume of 10 μL). […] The reactions were quenched by the addition of loading dye and 4 μL aliquots were loaded onto a sequencing gel (14″×17″, poured with 20% acrylamide/7M urea/1×TBE), electrophoresed for 3 hours at 55 watts/[…] and exposed to X-ray film.
# T7 DNA polymerase = T7 DNA polymerase (Escherichia phage T7, UniProt P00581); conditions: Procedure 2; for incorporation into DNA by T7 DNA polymerase in primer extension: template with maximum four dTTP/dUTP sites
# Experimental: as §1
# [2] = test system: exonuclease free Klenow polymerase; conditions: Procedure 2, results not shown
# Experimental: as §1
# T7 DNA polymerase, sequence (P00581 whole entry): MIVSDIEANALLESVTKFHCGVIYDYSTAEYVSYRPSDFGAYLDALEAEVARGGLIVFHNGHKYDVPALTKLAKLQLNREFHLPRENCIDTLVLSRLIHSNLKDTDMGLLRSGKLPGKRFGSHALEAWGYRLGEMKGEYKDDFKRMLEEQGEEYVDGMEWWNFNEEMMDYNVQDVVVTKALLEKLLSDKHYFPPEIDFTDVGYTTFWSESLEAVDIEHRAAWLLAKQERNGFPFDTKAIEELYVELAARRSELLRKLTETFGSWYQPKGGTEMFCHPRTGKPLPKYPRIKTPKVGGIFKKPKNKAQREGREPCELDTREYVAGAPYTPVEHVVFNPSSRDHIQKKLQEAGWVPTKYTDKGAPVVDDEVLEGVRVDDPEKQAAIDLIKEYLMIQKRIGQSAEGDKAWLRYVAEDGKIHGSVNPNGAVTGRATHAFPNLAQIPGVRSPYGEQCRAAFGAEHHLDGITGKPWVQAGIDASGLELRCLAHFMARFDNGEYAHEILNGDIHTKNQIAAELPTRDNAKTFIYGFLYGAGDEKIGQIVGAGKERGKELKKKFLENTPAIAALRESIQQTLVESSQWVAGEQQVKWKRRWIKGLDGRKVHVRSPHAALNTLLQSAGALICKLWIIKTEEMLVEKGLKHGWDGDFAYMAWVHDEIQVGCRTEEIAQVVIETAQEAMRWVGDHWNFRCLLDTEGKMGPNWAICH
# T7 DNA polymerase, sequence (P0AA25 2-109, further chain): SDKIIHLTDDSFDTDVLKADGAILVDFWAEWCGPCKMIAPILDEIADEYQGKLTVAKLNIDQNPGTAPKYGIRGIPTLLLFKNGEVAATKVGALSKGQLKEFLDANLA
# T2 sequence (P19821 whole entry): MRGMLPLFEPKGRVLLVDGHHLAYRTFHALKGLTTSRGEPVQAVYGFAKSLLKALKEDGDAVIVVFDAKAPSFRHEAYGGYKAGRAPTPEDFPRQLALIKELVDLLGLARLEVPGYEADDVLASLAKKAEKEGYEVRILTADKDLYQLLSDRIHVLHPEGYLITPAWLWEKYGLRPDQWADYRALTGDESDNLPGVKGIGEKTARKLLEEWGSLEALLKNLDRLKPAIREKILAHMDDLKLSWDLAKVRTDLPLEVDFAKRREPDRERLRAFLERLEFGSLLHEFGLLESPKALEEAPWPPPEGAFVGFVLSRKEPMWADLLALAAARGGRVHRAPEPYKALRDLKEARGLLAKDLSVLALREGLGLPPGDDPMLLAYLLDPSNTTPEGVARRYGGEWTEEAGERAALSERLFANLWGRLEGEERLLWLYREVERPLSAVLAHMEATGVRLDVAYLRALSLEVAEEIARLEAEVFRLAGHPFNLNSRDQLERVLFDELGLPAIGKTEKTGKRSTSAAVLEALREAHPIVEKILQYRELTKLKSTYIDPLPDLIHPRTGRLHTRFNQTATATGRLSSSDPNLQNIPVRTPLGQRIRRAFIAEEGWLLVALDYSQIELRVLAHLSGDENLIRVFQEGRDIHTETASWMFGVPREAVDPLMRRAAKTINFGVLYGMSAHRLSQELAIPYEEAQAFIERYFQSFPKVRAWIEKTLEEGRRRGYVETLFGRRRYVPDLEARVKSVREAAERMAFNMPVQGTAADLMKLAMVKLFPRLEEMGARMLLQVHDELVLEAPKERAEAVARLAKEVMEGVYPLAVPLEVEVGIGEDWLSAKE
# T3 sequence (P06526 whole entry): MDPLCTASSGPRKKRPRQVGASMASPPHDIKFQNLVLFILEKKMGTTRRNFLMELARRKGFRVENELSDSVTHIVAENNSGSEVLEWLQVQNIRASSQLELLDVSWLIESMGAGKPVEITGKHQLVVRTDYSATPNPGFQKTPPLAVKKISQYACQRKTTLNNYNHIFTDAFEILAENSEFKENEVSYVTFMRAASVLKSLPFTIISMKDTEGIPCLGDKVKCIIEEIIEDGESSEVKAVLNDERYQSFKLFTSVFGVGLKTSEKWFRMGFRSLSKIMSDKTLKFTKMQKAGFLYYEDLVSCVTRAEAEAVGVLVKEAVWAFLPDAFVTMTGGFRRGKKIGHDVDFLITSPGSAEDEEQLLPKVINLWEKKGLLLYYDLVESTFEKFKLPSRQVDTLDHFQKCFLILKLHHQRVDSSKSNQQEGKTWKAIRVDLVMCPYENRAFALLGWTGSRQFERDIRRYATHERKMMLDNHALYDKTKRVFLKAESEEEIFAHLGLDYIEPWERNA
# T1 sequence (P00582 324-928): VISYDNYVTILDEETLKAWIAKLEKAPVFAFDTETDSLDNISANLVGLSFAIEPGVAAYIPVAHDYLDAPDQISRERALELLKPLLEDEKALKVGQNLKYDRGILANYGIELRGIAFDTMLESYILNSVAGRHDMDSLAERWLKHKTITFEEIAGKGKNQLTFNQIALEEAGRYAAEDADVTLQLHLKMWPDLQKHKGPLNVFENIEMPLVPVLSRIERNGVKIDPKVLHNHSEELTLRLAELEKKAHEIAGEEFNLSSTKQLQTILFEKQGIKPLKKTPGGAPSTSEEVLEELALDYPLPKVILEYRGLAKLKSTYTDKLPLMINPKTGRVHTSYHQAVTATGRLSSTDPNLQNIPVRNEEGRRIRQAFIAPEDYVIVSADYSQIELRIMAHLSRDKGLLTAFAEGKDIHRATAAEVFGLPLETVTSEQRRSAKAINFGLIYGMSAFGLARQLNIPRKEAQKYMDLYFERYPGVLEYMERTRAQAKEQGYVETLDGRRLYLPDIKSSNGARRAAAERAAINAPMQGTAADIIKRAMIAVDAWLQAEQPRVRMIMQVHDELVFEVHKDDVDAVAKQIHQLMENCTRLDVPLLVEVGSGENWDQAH
Substance,accepted as substrate by Klenow polymerase in primer extension (Klenow polymerase),incorporation into DNA by Taq DNA polymerase in primer extension (Taq DNA polymerase),number of contiguous modified bases added to the 3' terminus [1],incorporation into DNA by T7 DNA polymerase in primer extension (T7 DNA polymerase),accepted as substrate by exonuclease free Klenow polymerase in primer extension [2],"substrate for TdT in oligonucleotide tailing / 3'-end labeling ([1]; Procedure 1, 20% denaturing PAGE, autoradiography)",substrate efficiency with T7 polymerase relative to Taq polymerase (T7 DNA polymerase; smaller fragments observed in T7 reaction)
maleimido-methylcyclohexane-dUTP [MCC-dUTP],accepted as a substrate,essentially the same degree of incorporation as PDP-dUTP,up to 5 bases,essentially the same degree of incorporation as PDP-dUTP,accepted as a substrate,–,–
pyridine dithiopropanoate-dUTP [PDP-dUTP],–,incorporated into DNA; also recorded: incorporated at several sites,up to 10 bases,incorporated into DNA,–,substrate for TdT,reduced substrate efficiency with T7 polymerase compared to Taq polymerase
